Measurements as given in PMC11995724, “Antibiotic target discovery by integrated phenotypic and activity-based profiling of electrophilic fragments” (Cell chemical biology, 2025).

assay: in vitro; settings: human, hek293t cells

Point of comparison: `COc1ccc(C=C(C#N)C(=O)Nc2ccc(C(=O)O)cc2)cc1O` [9-F10, 4-[2-cyano-3-(3-hydroxy-4-methoxyphenyl)prop-2-enamido]benzoic acid], viability at 48 h, 25 µM 120%. Against it:
- C=CC(=O)NCc1nnc2ccccn12 [1-H19, N-({[1,2,4]triazolo[4,3-a]pyridin-3-yl}methyl)prop-2-enamide] — higher, 182%
- N#CC(=Cc1ccccc1)C(=O)Nc1ccc(N2CCCCC2)cc1 [8-E15, 2-cyano-3-phenyl-N-[4-(piperidin-1-yl)phenyl]prop-2-enamide] — lower, 64.7%
- CC(C)C(NC(=O)CCl)c1ccc(F)c(C#N)c1 (centres unmarked) [6-I19, 2-chloro-N-[1-(3-cyano-4-fluorophenyl)-2-methylpropyl]acetamide] — lower, 1.83%
- Cc1ccccc1C(NC(=O)CCl)c1ccccc1C [7-J04, N-[bis(2-methylphenyl)methyl]-2-chloroacetamide] — lower, 0.589%
- C=CC(=O)NCCc1csc(C)n1 [1-D13, N-[2-(2-methyl-1,3-thiazol-4-yl)ethyl]prop-2-enamide] — lower, 106%
- C=CC(=O)Nc1c(C)ccn2ncnc12 [2-M08, N-{7-methyl-[1,2,4]triazolo[1,5-a]pyridin-8-yl}prop-2-enamide] — lower, 92%
- C=CC(=O)NC(C)c1nnnn1C (centres unmarked) [3-A15, N-[1-(1-methyl-1H-1,2,3,4-tetrazol-5-yl)ethyl]prop-2-enamide] — lower, 23.9%
- CC(C)C(=O)Nc1ccc(C(=O)C(C)Cl)cc1 (centres unmarked) [10-E08, N-[4-(2-chloropropanoyl)phenyl]-2-methylpropanamide] — lower, 100%
- N#CC(=Cc1ccc(Cl)c([N+](=O)[O-])c1)C(=O)NCc1ccco1 [9-E15, 3-(4-chloro-3-nitrophenyl)-2-cyano-N-[(furan-2-yl)methyl]prop-2-enamide] — lower, 6.64%
- N#CC(=Cc1ccc([N+](=O)[O-])o1)C(=O)NCc1ccco1 [8-I17, 2-cyano-N-[(furan-2-yl)methyl]-3-(5-nitrofuran-2-yl)prop-2-enamide] — lower, 1.08%
- O=C(CCl)NC1CCS(=O)(=O)CC1 [6-M08, 2-chloro-N-(1,1-dioxo-1lambda6-thian-4-yl)acetamide] — lower, 53.7%
- CC(Cl)C(=O)Nc1ccc(Cl)cc1Cl (centres unmarked) [4-L17, 2-chloro-N-(2,4-dichlorophenyl)propanamide] — lower, 81.6%
- CC(Cl)C(=O)NCc1ccn(CC(F)F)n1 (centres unmarked) [7-I17, 2-chloro-N-{[1-(2,2-difluoroethyl)-1H-pyrazol-3-yl]methyl}propanamide] — lower, 88.7%
- COc1ccc(C=C(C#N)C(=O)Nc2ccccc2Cl)cc1O [8-C21, N-(2-chlorophenyl)-2-cyano-3-(3-hydroxy-4-methoxyphenyl)prop-2-enamide] — lower, 82.8%
- C=CC(=O)N1CCC(Cc2nc(C3CCC3)no2)CC1 [2-A06, 1-{4-[(3-cyclobutyl-1,2,4-oxadiazol-5-yl)methyl]piperidin-1-yl}prop-2-en-1-one] — lower, 93%
- N#CC(=Cc1ccc(N)cc1)C(=O)N1CCCC1 [9-E14, 3-(4-aminophenyl)-2-(pyrrolidine-1-carbonyl)prop-2-enenitrile] — lower, 101%
- COCCNC(=O)C(C#N)=Cc1sccc1C [9-M17, 2-cyano-N-(2-methoxyethyl)-3-(3-methylthiophen-2-yl)prop-2-enamide] — higher, 131%
- C=CC(NC(=O)CCl)C1CCOCC1 (centres unmarked) [5-N13, 2-chloro-N-[1-(oxan-4-yl)prop-2-en-1-yl]acetamide] — lower, 111%
- C=CC(=O)Nc1ccc2oc(CC(C)(C)C)nc2c1 [3-K18, N-[2-(2,2-dimethylpropyl)-1,3-benzoxazol-5-yl]prop-2-enamide] — lower, 82.2%
- N#CC(=Cc1cnn(-c2ccc(Cl)cc2)c1)C(=O)NC1CCCCC1 [8-A08, 3-[1-(4-chlorophenyl)-1H-pyrazol-4-yl]-2-cyano-N-cyclohexylprop-2-enamide] — lower, 60.6%
- Cc1ccc2sc(N(Cc3ccccc3)C(=O)CCl)nc2c1C [4-K06, N-benzyl-2-chloro-N-(4,5-dimethyl-1,3-benzothiazol-2-yl)acetamide] — lower, -0.0749%
- C=CC(=O)NCc1ccsc1-n1cccc1 [1-K08, N-{[2-(1H-pyrrol-1-yl)thiophen-3-yl]methyl}prop-2-enamide] — higher, 153%
- CCN(CC)S(=O)(=O)c1cc(NC(=O)C(C)Cl)ccc1C (centres unmarked) [4-P09, 2-chloro-N-[3-(diethylsulfamoyl)-4-methylphenyl]propanamide] — lower, 69.6%
- Cc1ccc(CNC(=O)C(C)Cl)cc1 (centres unmarked) [5-O03, 2-chloro-N-[(4-methylphenyl)methyl]propanamide] — lower, 94.7%
- C=CC(=O)N(Cc1cc2cccc(OC)c2o1)[C@@H]1C[C@H]2CC[C@@H]1O2 (racemic) [1-J13, rac-N-[(7-methoxy-1-benzofuran-2-yl)methyl]-N-[(1R,2S,4S)-7-oxabicyclo[2.2.1]heptan-2-yl]prop-2-enamide] — higher, 172%
- C=CC(=O)N1CC(S(=O)(=O)N2CCOCC2)C1 [2-A16, 1-[3-(morpholine-4-sulfonyl)azetidin-1-yl]prop-2-en-1-one] — lower, 74%
- C=CC(=O)NCCNC(=O)c1cc2ccccc2[nH]1 [3-B21, N-{2-[(1H-indol-2-yl)formamido]ethyl}prop-2-enamide] — lower, 63.1%
- N#CC(=Cc1ccc(Cl)cc1Cl)C(=O)Nc1nccs1 [9-H19, 2-cyano-3-(2,4-dichlorophenyl)-N-(1,3-thiazol-2-yl)prop-2-enamide] — higher, 121%
- CC(Cl)C(=O)N(C)CC(=O)Nc1ccccc1C(F)(F)F (centres unmarked) [4-N05, 2-chloro-N-methyl-N-({[2-(trifluoromethyl)phenyl]carbamoyl}methyl)propanamide] — lower, 79.8%
- C=CC(=O)N1CCC(c2nc(C)no2)CC1 [3-E05, 1-[4-(3-methyl-1,2,4-oxadiazol-5-yl)piperidin-1-yl]prop-2-en-1-one] — lower, 49.7%
- C=CC(=O)NCc1nnc(COC)[nH]1 [3-F10, N-{[5-(methoxymethyl)-4H-1,2,4-triazol-3-yl]methyl}prop-2-enamide] — lower, 102%
- Cc1csc(Cl)c1NC(=O)CCl [6-A06, 2-chloro-N-(2-chloro-4-methylthiophen-3-yl)acetamide] — lower, 0.632%
- N#CC(=Cc1ccc(C#N)cc1)C(=O)N1CCCC1 [9-P21, 4-[2-cyano-2-(pyrrolidine-1-carbonyl)eth-1-en-1-yl]benzonitrile] — lower, 117%
- C=CC(=O)N(Cc1ccc(=O)n(C)c1)C1CCCc2ccccc21 (centres unmarked) [1-B17, N-[(1-methyl-6-oxo-1,6-dihydropyridin-3-yl)methyl]-N-(1,2,3,4-tetrahydronaphthalen-1-yl)prop-2-enamide] — lower, 112%
- Cn1ccnc1C(NC(=O)CCl)c1ccccc1 (centres unmarked) [4-H20, 2-chloro-N-[(1-methyl-1H-imidazol-2-yl)(phenyl)methyl]acetamide] — lower, 44.4%
- Cc1ccc(-c2csc(NC(=O)CCl)n2)cc1C [5-F16, 2-chloro-N-[4-(3,4-dimethylphenyl)-1,3-thiazol-2-yl]acetamide] — lower, 0.595%
- CCC(C)c1ccccc1NC(=O)CCl (centres unmarked) [6-K11, N-[2-(butan-2-yl)phenyl]-2-chloroacetamide] — lower, 0.743%
- O=C(CCl)NC1CCN(C(=O)CCc2ccccc2)CC1 [6-N08, 2-chloro-N-[1-(3-phenylpropanoyl)piperidin-4-yl]acetamide] — lower, 1.6%
- O=C(CCl)NC(Cc1cccc(O)c1)c1ccccc1 (centres unmarked) [7-N20, 2-chloro-N-[2-(3-hydroxyphenyl)-1-phenylethyl]acetamide] — lower, 0.777%
- CC(Cl)C(=O)Nc1cc([N+](=O)[O-])ccc1Cl (centres unmarked) [6-I14, 2-chloro-N-(2-chloro-5-nitrophenyl)propanamide] — lower, 117%
- CC(Cl)C(=O)c1c(N)n(C)c(=O)n(C)c1=O (centres unmarked) [10-F22, 6-amino-5-(2-chloropropanoyl)-1,3-dimethyl-1,2,3,4-tetrahydropyrimidine-2,4-dione] — lower, 87.8%
- COc1cc(C=C(C#N)C(=O)NC2CC2)cc(OC)c1O [9-O19, 2-cyano-N-cyclopropyl-3-(4-hydroxy-3,5-dimethoxyphenyl)prop-2-enamide] — higher, 124%
- C=CC(=O)NCCNS(=O)(=O)c1cc(C)ccc1F [2-L11, N-[2-(2-fluoro-5-methylbenzenesulfonamido)ethyl]prop-2-enamide] — lower, 39.4%
- C=CC(=O)NCc1ccc(C(=O)N2CCC[C@@H]2C(N)=O)cc1 [3-L22, (2R)-1-{4-[(prop-2-enamido)methyl]benzoyl}pyrrolidine-2-carboxamide] — lower, 81.9%
- C=CC(=O)NCC1CCC2(CCCC2)O1 (centres unmarked) [1-A06, N-({1-oxaspiro[4.4]nonan-2-yl}methyl)prop-2-enamide] — lower, 106%
- CC(Cl)C(=O)N1CCN(c2nnnn2-c2ccccc2)CC1 (centres unmarked) [7-I12, 2-chloro-1-[4-(1-phenyl-1H-1,2,3,4-tetrazol-5-yl)piperazin-1-yl]propan-1-one] — lower, 74.2%
- CCc1ccc(CNC(=O)CCl)s1 [6-K05, 2-chloro-N-[(5-ethylthiophen-2-yl)methyl]acetamide] — lower, 5.18%
- C=CC(=O)N1CCCC(Cc2noc(C)n2)C1 (centres unmarked) [1-L20, 1-{3-[(5-methyl-1,2,4-oxadiazol-3-yl)methyl]piperidin-1-yl}prop-2-en-1-one] — lower, 72.5%
- Cc1cc(C)c(CCNC(=O)CCl)c(C)c1 [6-K06, 2-chloro-N-[2-(2,4,6-trimethylphenyl)ethyl]acetamide] — lower, 14.3%
- CCc1nc2c(s1)C(N(C)C(=O)C(C)Cl)CCC2 (centres unmarked) [7-N17, 2-chloro-N-(2-ethyl-4,5,6,7-tetrahydro-1,3-benzothiazol-7-yl)-N-methylpropanamide] — lower, 84.1%
- CC(Cl)C(=O)N1CC(n2cc(C(N)=O)nn2)C1 (centres unmarked) [5-F21, 1-[1-(2-chloropropanoyl)azetidin-3-yl]-1H-1,2,3-triazole-4-carboxamide] — lower, 94.6%
- Cc1nn(CC(C)C)c(Cl)c1C1CCCN1C(=O)C(C)Cl (centres unmarked) [7-P19, 2-chloro-1-{2-[5-chloro-3-methyl-1-(2-methylpropyl)-1H-pyrazol-4-yl]pyrrolidin-1-yl}propan-1-one] — lower, 78%
